The values that follow come from PubChem BioAssay AID720588 (Broad Institute, 2013).

The subject of this test is HEK293T viability, CellTiter-Glo ATP luminescence, 72 h. Put plainly: ATP-based viability loss in HEK293T cells – cell-based, CellTiter-Glo luminescence, cherry-pick, set 3, cytotoxicity control, dose response (AID 720588).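 Also: potency for luminescence loss meaning cytotoxic compounds.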 On the technique in general: Cellular ATP, detected with luciferase, serves as a proxy for viable cell number.
Consider `Cn1ccc2cc(-c3ccc4ncnc(NCc5cccs5)c4c3)ccc21`, for which the AC35 was 9.58 µM.

As to `C[C@]12CC[C@H](O)C[C@H]1CC[C@@H]1[C@@H]2CC[C@]2(C)[C@@H](C3=CC(=O)OC3)CC[C@]12O`, the AC35 is 0.629 µM.

Regarding `CCCCCCCCn1c2c(c(=N)c3c1CCC3)CCCC2`, the AC35 is 3.51 µM.

On to `CCCCCCCCNC(C)C(O)c1ccc(SC(C)C)cc1` (centres undefined), for which the AC35 was 12.2 µM.

For the compound `C[C@@H]1O[C@@H](O[C@H]2C[C@@H](O)[C@]3(CO)[C@H]4[C@H](O)C[C@]5(C)[C@@H](C6COC(=O)C6)CC[C@]5(O)[C@@H]4CC[C@]3(O)C2)[C@H](O)[C@H](O)[C@H]1O` (some centres undefined), the AC35 was 2.22 µM.

Take `COc1ccc(S(=O)(=O)Nc2ccc3c(c2)C(=O)N([C@H](C)CO)C[C@@H](C)[C@@H](CN(C)CC2CCCCC2)OCCCC[C@H](C)O3)cc1`: the AC35 was 14.1 µM.

In the case of `O=C(NC[C@@H]1N[C@@H](CO)[C@H]1c1ccc(C2=CCCCC2)cc1)c1cccc(F)c1`, the AC35 is 10.1 µM.

As for `C[C@]12CC[C@H](O)C[C@H]1CC[C@@H]1[C@@H]2C[C@@H](O)[C@]2(C)[C@@H](C3=CC(=O)OC3)CC[C@]12O`, the AC35 is 1.16 µM.

In the case of `COC(=O)CC1(C(=O)OC)Oc2ccc(Br)cc2C(=O)N1c1cccc(Cl)c1Cl` (centres undefined), the AC35 was 13.1 µM.

Take `C[C@@H]1CN([C@@H](C)CO)S(=O)(=O)c2ccc(C#Cc3ccncc3)cc2O[C@H]1CN(C)S(=O)(=O)c1ccccc1`: the AC35 was 24.5 µM.

On to `C[C@@H]1CN([C@@H](C)CO)C(=O)c2cccc(N(C)C)c2O[C@@H]1CN(C)Cc1ccc(C(=O)Nc2ccccc2N)cc1`, for which the AC35 is 8.32 µM.

With `CCN1CCS/C1=C\C=C\C1=[N+](CC)CCS1`, the AC35 was 11.2 µM.

For the compound `O=C(Nc1ccccc1F)N1CCCCN2[C@H](CO)[C@H](c3ccc(/C=C/c4ccccc4)cc3)[C@H]2C1`, the AC35 was 13.7 µM.

For the compound `CC(C)N1C/C(=C/c2ccsc2)C(=O)/C(=C/c2ccsc2)C1`, the AC35 is 7.95 µM.

Regarding `COC(=O)C1=C(C)N(Cc2ccccc2C(F)(F)F)C(=NCc2ccc(OC)cc2)NC1c1ccc(C(F)(F)F)cc1` (centres undefined), the AC35 was 9.47 µM.

In the case of `Nc1nc(N)c2cc(Sc3ccc4ccccc4c3)ccc2n1`, the AC35 is 4.44 µM.

Take `CN(CCO)c1ccc(/C=N/Nc2nncc3ccccc23)cc1`: the AC35 is 13 µM.

`Cc1nn(Cc2ccccc2Cl)c2sc(C(=O)Nc3ccccc3N3CCOCC3)cc12`: the AC35 was 15.9 µM.

`O=C(C[C@@H]1C[C@H]2c3cc(NS(=O)(=O)c4ccc(F)cc4)ccc3O[C@H]2[C@H](CO)O1)NCc1ccc(-c2ccccc2)cc1`: the AC35 was 18.7 µM.

As to `O=C1NC(=O)N(Cc2ccc(F)cc2)C(=O)/C1=C\C=C\c1ccco1`, the AC35 was 13.3 µM.

Turning to `Cc1cc(C)c2sc(NNC(=O)c3ccc(S(=O)(=O)N4CCc5ccccc5C4)cc3)nc2c1`, the AC35 is 5.13 µM.

Turning to `CC(C)CC#Cc1ccc([C@@H]2[C@@H](CO)N3CCCCN(S(=O)(=O)c4ccc(F)cc4)C[C@H]23)cc1`, the AC35 is 16.1 µM.

On to `c1ccc(Nc2nnc(-c3ccc4c(c3)OCO4)o2)cc1`, for which the AC35 is 3.33 µM.

As to `COc1ccccc1CNC(=O)C[C@@H]1CC[C@H]2[C@@H](COC[C@H](O)CN2C(=O)Nc2ccc(C(F)(F)F)cc2)O1`, the AC35 is 13.5 µM.

Turning to `Cc1cccc(/C=N/Nc2ccc3ccccc3n2)c1`, the AC35 is 11.2 µM.

For the compound `NC1=CC(=O)C(=O)c2cccnc21`, the AC35 is 20.7 µM.

`C[C@@H]1O[C@@H](O[C@@H]2C=C3CC[C@@H]4C(CC[C@]5(C)[C@@H](c6ccc(=O)oc6)CC[C@]45O)[C@@]3(C)CC2)[C@H](O)[C@H](O)[C@H]1O` (some centres undefined): the AC35 was < 0.011 µM.

As to `C[C@@H]1CN([C@@H](C)CO)C(=O)c2cc(N(C)C)ccc2O[C@H]1CN(C)Cc1ccc(C(=O)Nc2ccccc2N)cc1`, the AC35 was 24.6 µM.

On to `CCN1/C(=C/C(C)=C/c2sc3ccccc3[n+]2CC)Sc2ccccc21`, for which the AC35 was 0.301 µM.

Take `CN=c1scc(-c2ccccc2F)n1/N=C/c1ccc[nH]1`: the AC35 is 10.8 µM.

For the compound `COc1ccc(C=C2CCc3ccccc3C2=O)cc1`, the AC35 is 16.2 µM.

Turning to `C[C@H]1CN([C@@H](C)CO)C(=O)c2cc(N(C)C)ccc2O[C@@H]1CN(C)Cc1ccc(C(=O)Nc2ccccc2N)cc1`, the AC35 is 24.8 µM.

Turning to `CCc1ccc(N2C=C(C(=O)OC)C(c3ccc(OC)cc3)C(C#N)=C2N)cc1` (centres undefined), the AC35 is 10.6 µM.

For the compound `Cc1cc2c(C(C)C)c(O)c(O)c(C=O)c2c(O)c1-c1c(C)cc2c(C(C)C)c(O)c(O)c(C=O)c2c1O`, the AC35 is 9.42 µM.

On to `C/C(=C\c1ccccc1)C(=O)N1CCC=CC1=O`, for which the AC35 is 22.3 µM.

Take `Oc1[nH]c2ccc(Br)cc2c1N=NC(=S)N1CCOCC1`: the AC35 was 4.31 µM.

Take `C[C@@H]1CN([C@@H](C)CO)C(=O)c2cc(NS(=O)(=O)c3ccc(Cl)cc3)ccc2O[C@@H]1CN(C)Cc1ccc(C(=O)Nc2ccccc2N)cc1`: the AC35 was 9.95 µM.

As to `CO[C@H]1CN(C)C(=O)c2ccc(NC(=O)c3ccc(-c4ccccc4)cc3)cc2OC[C@H](C)NC[C@H]1C`, the AC35 was 8.64 µM.

Regarding `O=C(CCc1ccccc1)NC(c1cccs1)c1cc(Cl)c2cccnc2c1O` (centres undefined), the AC35 was 7.93 µM.

Take `O=C1Nc2ccccc2C1=Nc1ccc(Br)cc1`: the AC35 is 14.1 µM.

As to `C=C1C(=O)[C@@]23[C@H](O)C[C@@H]4C(C)(C)CC[C@H](O)[C@@]4(C)[C@@H]2CC[C@@H]1[C@H]3O`, the AC35 was 6.9 µM.

With `O=C(O)c1ccc(N/N=C/c2ccc3c(c2)OCO3)cc1`, the AC35 was 7.33 µM.

With `CC1(C)N=C(N)N=C(N)N1c1ccc(CCCCc2ccccc2)cc1`, the AC35 was 3.5 µM.

Turning to `N#C[C@H]1[C@H](c2ccc(C#Cc3ccccc3F)cc2)[C@@H](CO)N1C(=O)C1CCCCC1`, the AC35 is 13.2 µM.

Turning to `Cc1nc(N)nc(N)c1/C=C/C(C)(C)c1ccc(Cl)cc1`, the AC35 is 0.0229 µM.

On to `Nc1ccc(Oc2cccc(Oc3ccc(N)cc3)c2)cc1`, for which the AC35 was 6.82 µM.

`Cc1ccc2nc(-c3ccccc3)nn2c1`: the AC35 is 11.7 µM.

`Cc1cccc(CN2C(=O)/C(=C\c3ccc(C(=O)NCCCN4CCN(C)CC4)cc3)Oc3ccccc32)c1`: the AC35 is 13.6 µM.

For the compound `CCN1/C(=C/C=C/c2oc3ccc(-c4ccccc4)cc3[n+]2CC)Oc2ccc(-c3ccccc3)cc21`, the AC35 is 4.89 µM.

In the case of `O=C(Sc1cccc2cccnc12)c1ccccc1Br`, the AC35 was 7.7 µM.

With `C[C@H]1CN([C@@H](C)CO)C(=O)c2cc(N(C)C)ccc2O[C@H]1CN(C)Cc1ccc(C(=O)Nc2ccccc2N)cc1`, the AC35 was 3.65 µM.

For the compound `COc1ccc(OC)c(-c2nnc3n2N=C(c2ccc(OC)c(OC4CCCC4)c2)CS3)c1`, the AC35 is 11.6 µM.

Regarding `C[C@@H]1CCCCO[C@H](CN(C)Cc2ccc(C(=O)Nc3ccccc3N)cc2)[C@@H](C)CN([C@H](C)CO)C(=O)c2cc(NS(=O)(=O)c3ccc(Cl)cc3)ccc2O1`, the AC35 is 17.3 µM.

As to `COc1ccc(/C=C(/C(=O)c2cccs2)N2C=CC=CC2=C(C#N)C#N)cc1`, the AC35 is 6.97 µM.

On to `CN(C[C@H]1N[C@@H](CO)[C@@H]1c1ccc(C2=CCCC2)cc1)C(=O)c1cccc(F)c1`, for which the AC35 is 4.63 µM.

In the case of `C[C@@H]1CN([C@@H](C)CO)C(=O)c2cc(NC(=O)Nc3ccccc3)ccc2O[C@@H]1CN(C)Cc1ccc(C(=O)Nc2ccccc2N)cc1`, the AC35 is 8.46 µM.

As for `C=C1C(=O)OC2C1CCC(C)C1C=CC(=O)C12C` (centres undefined), the AC35 was 8.71 µM.

`Nc1ccc(Cn2ccc3c4c(N)nc(N)nc4ccc32)cc1`: the AC35 is 0.125 µM.

With `CN(C)c1ccc(C=c2c3ccccc3n3c2c2c([n+]3C)CCCC2)cc1`, the AC35 was 2.08 µM.
